TGI and GI50 data for five compounds are collected here from US10239844B2, “Disubstituted triazole analogs” (BioVentures, LLC, priority 2014, dated 2019).

The TGI is the concentration at which net growth stops. Usually GI50 stands for the concentration that inhibits growth by half. Lower therefore signals more potent growth inhibition.

One test has as its system A498. The test can be described thus: NCI 60 panel five-dose growth inhibition, Renal Cancer. Format: cell-based, human. The conditions noted are these: for GI50: Homo sapiens, A498, A498, Renal Cancer.
The subject of another test is NCI-H23. The test can be described thus: NCI 60 panel five-dose growth inhibition, Non-Small Cell Lung Cancer. Format: cell-based, human. The conditions noted are these: for GI50: Homo sapiens.
The test system of another test is HOP-62. Described as above. To be noted: HOP-62, Non-Small Cell Lung Cancer; for GI50: Homo sapiens. The test is classed as cell-based, human.
The subject of a further test is HS 5781. The test can be described thus: NCI 60 panel five-dose growth inhibition, Breast Cancer. The test is classed as cell-based, human. To be noted: HS 5781, Breast Cancer; for GI50: Homo sapiens.
The next test has as its system LOX IMVI. Briefly: NCI 60 panel five-dose growth inhibition, Melanoma. The test is classed as cell-based, human. To be noted: for GI50: Homo sapiens.
In the next test the test system is NCI-H460. Briefly: NCI 60 panel five-dose growth inhibition, Non-Small Cell Lung Cancer. Format: cell-based, human. The conditions noted are these: for GI50: Homo sapiens.
For a further test, the system named is UACC-62. Briefly: NCI 60 panel five-dose growth inhibition, Melanoma. Format: cell-based, human. The conditions noted are these: for GI50: Homo sapiens, UACC-62, UACC-62, Melanoma; for TGI: UACC-62, Melanoma.
The test system of another test is NCI/ADR-RES. Briefly: NCI 60 panel five-dose growth inhibition, Ovarian Cancer. Format: cell-based, human. The conditions noted are these: for GI50: Homo sapiens.
The subject of another test is 5K-MEL-5. The test can be described thus: NCI 60 panel five-dose growth inhibition, Melanoma. To be noted: 5K-MEL-5, Melanoma; for GI50: Homo sapiens. The test is classed as cell-based, human.
Another test deals with K-562. Briefly: NCI 60 panel five-dose growth inhibition, Leukemia. Format: cell-based, human. To be noted: K-562, Leukemia; for GI50: Homo sapiens, K562.
The subject of the next test is SR. Briefly: NCI 60 panel five-dose growth inhibition, Leukemia. Format: cell-based, human. The conditions noted are these: for GI50: Homo sapiens.
Test [1] deals with panel of 60 different human cancer cell lines. The test can be described thus: NCI panel of 60 human cancer cell lines, summary over the panel. Format: cell-based. To be noted: against almost all the cell lines except UACC-62, COLO 205 and HCC-2998. As to the method:
All synthesized compounds were submitted and evaluated for their anticancer activity at the National Cancer Institute (NCI). The submitted compounds were tested against a panel of 60 different human cancer cell lines, initially at a single concentration of 10 μM. Compounds showing the best growth inhibition activity were then selected for a complete five-dose response study. The anti-tumor effect of each compound was then determined by its GI50 and LC50 values.
The five compounds selected for the full dose response studies have very effective GI50 and TGI (Total Growth Inhibition) values against a variety of human tumor cell lines. All the compounds have LD50 values >100 μM against most of the human cancer cell lines implying the compounds are anti-proliferative. […] Example 4 and Example 6 have <10 nM GI50 values against Leukemia cancer cell lines K-562, SR, non-small lung cancer cell line HOP-92, colon cancer cell lines HCT-116, HCT-15, melanoma cancer lines M14, UACC-62, ovarian cancer cell line NCI/ADR-RES and renal cancer cell line A498.

In the case of `COc1cc(-c2n[nH]nc2-c2cc(OC)c(OC)c(OC)c2)cc(OC)c1OC` [Example 3, 4,5-bis(3,4,5-trimethoxyphenyl)-2H-1,2,3-triazole], the TGI is 6690 nM with A498 (A498, Renal Cancer); greater than 100000 nM with NCI-H23; greater than 100000 nM with HOP-62; greater than 100000 nM in the test on HS 5781; greater than 100000 nM with LOX IMVI; greater than 100000 nM with NCI-H460. Also, the TGI is 4610 nM in the test with UACC-62; 66100 nM in the test on NCI/ADR-RES; 350 nM in the test on 5K-MEL-5; greater than 100000 nM in the test with K-562; greater than 100000 nM in the test with SR. Besides, the GI50 with A498 stood at 33.2 nM; with NCI-H23, 64.9 nM; with HOP-62, 46.7 nM; with LOX IMVI, 65.2 nM; with NCI-H460, 38.1 nM; in the test with UACC-62 it was 157 nM. The GI50 in the test with NCI/ADR-RES was determined as 23.1 nM; in the test on 5K-MEL-5 it was 12.6 nM; with K-562, 25.7 nM; in the test on SR, 21.1 nM.
Turning to `COc1ccc(-c2n[nH]nc2-c2cc(OC)c(OC)c(OC)c2)cc1` [Example 6, 4-(4-methoxyphenyl)-5-(3,4,5-trimethoxyphenyl)-2H-1,2,3-triazole], the TGI with A498 (A498, Renal Cancer) amounted to 1500 nM; in the test on NCI-H23 it was 41700 nM; in the test with HOP-62, 19300 nM; in the test on HS 5781, 64200 nM; with LOX IMVI it was 37800 nM; with NCI-H460, 20000 nM. Moreover, the TGI with UACC-62 is 21200 nM; in the test on NCI/ADR-RES, 69700 nM; with 5K-MEL-5, 160 nM; in the test with K-562, greater than 100000 nM; in the test with SR, 24000 nM. The GI50 with A498 is less than 10 nM; in the test on NCI-H23, 48 nM; in the test on HOP-62 it was 18.2 nM; in the test with HS 5781, 668 nM; with LOX IMVI, 17.5 nM; in the test on NCI-H460 it was 24.6 nM. Besides, the GI50 with NCI/ADR-RES, in the test on 5K-MEL-5, in the test with K-562 and in the test with SR was less than 10 nM in each case.
With `COc1cc(-c2n[nH]nc2-c2ccc3c(c2)OCCO3)cc(OC)c1OC` [Example 7, 4-(2,3-dihydrobenzo[b][1,4]dioxin-6-yl)-5-(3,4,5-trimethoxyphenyl)-2H-1,2,3-triazole], the total growth inhibition concentration (TGI) in the test with A498 (A498, Renal Cancer) is 9320 nM; with NCI-H23, greater than 100000 nM; in the test with HOP-62, greater than 100000 nM; with HS 5781, greater than 100000 nM; in the test with LOX IMVI, 87100 nM; in the test with NCI-H460 it was 28700 nM. Besides, the TGI was 30800 nM with UACC-62; 24000 nM in the test on NCI/ADR-RES; 11900 nM in the test on 5K-MEL-5; greater than 100000 nM with K-562; 11600 nM in the test with SR. Moreover, the GI50 in the test on A498 amounted to 343 nM; with NCI-H23, 767 nM; with HOP-62, 336 nM; in the test on HS 5781, 442 nM; in the test with LOX IMVI, 545 nM; with NCI-H460 it was 335 nM. In addition, the GI50 in the test on UACC-62 was greater than 1000 nM; in the test on NCI/ADR-RES, 84.9 nM; in the test with 5K-MEL-5, greater than 1000 nM; in the test with K-562 it was 49.6 nM; in the test on SR it was 43.6 nM.
Consider `COc1cc(-c2n[nH]nc2-c2ccc3ccccc3n2)cc(OC)c1OC` [Example 4, 2-(5-(3,4,5-trimethoxyphenyl)-2H-1,2,3-triazol-4-yl)quinoline], for which the GI50 was less than 10 nM with A498; 37.7 nM with NCI-H23; 25 nM in the test on HOP-62; 40.9 nM in the test with HS 5781; 75.5 nM with LOX IMVI; 34.2 nM in the test on NCI-H460. For the same compound, the GI50 with UACC-62 was less than 10 nM; in the test on NCI/ADR-RES it was less than 10 nM; in the test with 5K-MEL-5, 26.7 nM; in the test on K-562, less than 10 nM; with SR, less than 10 nM. Moreover, the TGI is 27900 nM with NCI-H23; greater than 100000 nM with HOP-62; greater than 100000 nM in the test on HS 5781; greater than 100000 nM in the test on LOX IMVI; greater than 100000 nM in the test with NCI-H460; greater than 100000 nM in the test on UACC-62. Further, the TGI in the test with NCI/ADR-RES is 80 nM; in the test with 5K-MEL-5, 320 nM; in the test on K-562 it was greater than 100000 nM; in the test on SR, 16900 nM.
For the compound `COc1ccc(-c2n[nH]nc2-c2cc(OC)cc(OC)c2)cc1` [Example 5, 4-(3,5-dimethoxyphenyl)-5-(4-methoxyphenyl)-2H-1,2,3-triazole], the TGI is less than 10 nM with A498 (A498, Renal Cancer); “less than 10 nM” in the test on A498 (A498, as stated in text); 68700 nM in the test with NCI-H23; 72400 nM with HOP-62; greater than 100000 nM in the test with HS 5781; greater than 100000 nM with LOX IMVI. Also, the TGI in the test on NCI-H460 was 10900 nM; with UACC-62 it was greater than 100000 nM; in the test with NCI/ADR-RES, 17500 nM; in the test with 5K-MEL-5 it was 20 nM; with K-562, greater than 100000 nM; in the test with SR it was greater than 100000 nM. Moreover, the GI50 in the test on A498, in the test with NCI-H23, in the test with HOP-62, in the test on HS 5781, in the test with LOX IMVI and in the test on NCI-H460 was less than 10 nM each time. For the same compound, the GI50 in the test with UACC-62 was greater than 1000 nM; in the test on NCI/ADR-RES, less than 10 nM; in the test on 5K-MEL-5 it was less than 10 nM; in test [1] it was less than 10 nM; in the test on K-562, less than 10 nM; in the test on SR, less than 10 nM.
